The subject of data set [1] is HeLa established tumors. The class given is in vivo, nude rat. The following applies: VPA 100 mg/kg; compared with mock-treated controls. An excerpt: Data shown represents the average values with standard deviation bars.
Data set [2] has as its system Capan-1. The data set can be described thus: LDH assay, H-1PV with or without VPA, PDAC cells. The following applies: 72 hours, H-1PV at various MOI, FIG. 7. The method, then:
(§1) APC-1 and Capan-1 cells were plated in 96 wells plates (2000 cells/well). After 16 hours, cell were infected with H-1PV at the indicated MOI and grown in the presence or absence of VPA for additional 72 hours. Cellular lysis was measured by LDH assay.
(§2) Parvovirus cytotoxicity was measured by evaluating the release of lactate dehydrogenase in the medium using the CytoTox 96 kit from Promega (Mannheim, Germany). The day before infection, 2000 cells were seeded per well in 96-well plate in 50 μl of culture medium. After 24 hours, cells were infected with 50 μl of serum-free medium containing H-1PV or treated with HDAC inhibitors in 7 replicates per condition. The day of measurement, 3 out of 7 wells were incubated for 30 minutes with lysis buffer to estimate the maximum LDH release under conditions of 100% lysis. Afterwards, the plate was centrifuged and 50 μl of supernatant were mixed with the substrate mix. The LDH enzyme catalyzes a colorimetric reaction that is indicative of the amount of enzyme released in the medium. After 30 minutes, the reaction was stopped and analyzed using the Elisa reader MultiScan at 492 nm.
(§3) Cells were seeded in 96 wells plate and then infected with various concentrations of H-1PV in the presence or absence of the HDACI Valproic acid (VPA).

For data set [3], the system named is AsPC-1. The data set can be described thus: LDH assay, H-1PV with or without VPA, PDAC cells. The following applies: AsPC-1 (printed AP-1), 72 hours, H-1PV at various MOI, FIG. 7. The procedure: as §1, §2, §3
Data set [4] concerns cervical carcinoma cell cultures (HeLa, CaSki, SiHa, CxCa). Nature of the data set: LDH assay, H-1PV with or without HDACI, statements over all cervical cultures. The class given is cell-based, human. The following applies: VPA 1 mM, 72 h, FIG. 5. The method, then: Cervical cancer derived cell lines (HeLa, CaSki, SiHa) and non-established cervical cancer cell cultures (CxCa) were infected with H-1PV at the indicated MOIs (pfu/cell) and grown for 72 h in the presence (grey bars) or absence (white bars) of VPA (1 mM). After incubation, cell lysis was evaluated by measuring the release of lactate dehydrogenase (LDH). Hatched bars at the right hand side of each chart show the minimal dose of H-1PV able to kill 90-100% of the cancer cells as monotherapy.
The sub-lethal dose of VPA boosted parvovirus-induced cell killing in a synergistic manner, increasing by up to 50-100%. […] Similar results were also obtained combining H-1PV with NaB, TSA or SaHa (Table 2).

For `CCCC(CCC)C(=O)O` [VPA, valproic acid], in data set [1], the tumour growth entry is on record as “failed to impair tumour growth”. The “cell lysis / cytotoxicity (LDH assay)” value in data set [2] and in data set [3] was “no effect” in each case. Further, the “effect on cellular growth when applied singly” value in data set [4] is on record as “did not have any significant effect”.

Source of the values: patent US9592260B2, “Cancer therapy with a parvovirus combined with an HDAC inhibitor” (priority 2010, dated 2017).
